Experimental data from patent US11477982B2, “2-amino-5-oxyalkyl-pyrimidine derivatives and their use for controlling undesired plant growth” (Bayer CropScience Aktiengesellschaft, priority 2017, dated 2022).

Tests used:
Type in all cases: in vivo
[1] = tested on: ABUTH: Abutilon theophrasti; experiment: Pre-emergence herbicidal effect
How it was run: (§1)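 Compounds applied before emergence onto soil over sown seeds (WP or EC, 0.5% additive, 600 l/ha water); greenhouse culture about 3 weeks, then percent activity judged by eye against untreated plants.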

[2] = tested on: ALOMY: Alopecurus myosuroides; experiment: Pre-emergence herbicidal effect; conditions: pre-emergence; dosage 320 g/ha
How it was run: as §1

[3] = tested on: AMARE: Amaranthus retroflexus; experiment: Pre-emergence herbicidal effect; conditions: pre-emergence; dosage 320 g/ha
How it was run: as §1

[4] = tested on: AVEFA: Avena fatua; experiment: Pre-emergence herbicidal effect
How it was run: as §1

[5] = tested on: ECHCG: Echinochloa crus-galli; experiment: Pre-emergence herbicidal effect; conditions: pre-emergence; dosage 320 g/ha
How it was run: as §1

[6] = tested on: HORMU: Hordeum murinum; experiment: Pre-emergence herbicidal effect; conditions: pre-emergence; dosage 320 g/ha
How it was run: as §1

[7] = tested on: LOLRI: Lolium rigidum; experiment: Pre-emergence herbicidal effect; conditions: dosage 320 g/ha
How it was run: as §1

[8] = tested on: MATIN: Matricaria inodora; experiment: Pre-emergence herbicidal effect; conditions: pre-emergence; dosage 320 g/ha
How it was run: as §1

[9] = tested on: PHBPU: Ipomoea purpurea; experiment: Pre-emergence herbicidal effect
How it was run: as §1

[10] = tested on: POLCO: Polygonum convolvulus; experiment: Pre-emergence herbicidal effect; conditions: dosage 320 g/ha
How it was run: as §1

[11] = tested on: SETVI: Setaria viridis; experiment: Pre-emergence herbicidal effect; conditions: pre-emergence; dosage 320 g/ha
How it was run: as §1

[12] = tested on: STEME: Stellaria media; experiment: Pre-emergence herbicidal effect; conditions: pre-emergence; dosage 320 g/ha
How it was run: as §1

[13] = tested on: VERPE: Veronica persica; experiment: Pre-emergence herbicidal effect; conditions: dosage 320 g/ha
How it was run: as §1

[14] = tested on: VIOTR: Viola tricolor; experiment: Pre-emergence herbicidal effect; conditions: dosage 320 g/ha
How it was run: as §1

[15] = tested on: ABUTH: Abutilon theophrasti; experiment: Post-emergence herbicidal effect
How it was run: (§2)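 Visual % activity against untreated controls, where 100% means plants died and 0% means no difference, rated about 3 weeks after treatment. Plants were sprayed at the one-leaf stage with WP or EC formulations diluted in water plus 0.5% additive, at 600 l/ha.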

[16] = tested on: ALOMY: Alopecurus myosuroides; experiment: Post-emergence herbicidal effect
How it was run: as §2

[17] = tested on: AMARE: Amaranthus retroflexus; experiment: Post-emergence herbicidal effect; conditions: dosage 320 g/ha
How it was run: as §2

[18] = tested on: ECHCG: Echinochloa crus-galli; experiment: Post-emergence herbicidal effect
How it was run: as §2

[19] = tested on: HORMU: Hordeum murinum; experiment: Post-emergence herbicidal effect
How it was run: as §2

[20] = tested on: LOLRI: Lolium rigidum; experiment: Post-emergence herbicidal effect
How it was run: as §2

[21] = tested on: MATIN: Matricaria inodora; experiment: Post-emergence herbicidal effect; conditions: dosage 320 g/ha
How it was run: as §2

[22] = tested on: PHBPU: Ipomoea purpurea; experiment: Post-emergence herbicidal effect
How it was run: as §2

[23] = tested on: POLCO: Polygonum convolvulus; experiment: Post-emergence herbicidal effect
How it was run: as §2

[24] = tested on: SETVI: Setaria viridis; experiment: Post-emergence herbicidal effect
How it was run: as §2

[25] = tested on: STEME: Stellaria media; experiment: Post-emergence herbicidal effect; conditions: dosage 320 g/ha
How it was run: as §2

[26] = tested on: VERPE: Veronica persica; experiment: Post-emergence herbicidal effect; conditions: dosage 320 g/ha
How it was run: as §2

[27] = tested on: VIOTR: Viola tricolor; experiment: Post-emergence herbicidal effect; conditions: dosage 320 g/ha
How it was run: as §2

With `Cc1ccc2c(c1)[C@H](Nc1ncc(C(C)O)c(C)n1)[C@@H](C)C2` (stereo partly drawn) [Example 1.7, 1-(2-{[(1R,2S)-2,6-Dimethyl-2,3-dihydro-1H-inden-1-yl]amino}-4-methylpyrimidin-5-yl)ethanol] the “Herbicidal action against ABUTH” value ([1]; dosage 80 g/ha) was 90%, the “Herbicidal action against ABUTH” value ([1]; dosage 320 g/ha) was 100% and the “Herbicidal action against ALOMY” value [2] was 100%. For the same compound, the “Herbicidal action against AMARE” value [3] was 100%, the “Herbicidal action against AVEFA” value ([4]; dosage 80 g/ha) was 70% and the “Herbicidal action against AVEFA” value ([4]; dosage 320 g/ha) was 90%. For the same compound, the “Herbicidal action against ECHCG” value [5] was 100%, the “Herbicidal action against HORMU” value [6] was 100% and the “Herbicidal action against LOLRI” value [7] was 100%. For the same compound, the “Herbicidal action against MATIN” value [8] was 100%, the “Herbicidal action against PHBPU” value ([9]; dosage 80 g/ha) was 80% and the “Herbicidal action against PHBPU” value ([9]; dosage 320 g/ha) was 80%. For the same compound, the “Herbicidal action against POLCO” value [10] was 100%, the “Herbicidal action against SETVI” value [11] was 100% and the “Herbicidal action against STEME” value [12] was 100%. The “Herbicidal action against VERPE” value [13] was 100%, the “Herbicidal action against VIOTR” value [14] was 100% and the “Herbicidal action against ABUTH” value ([15]; dosage 80 g/ha) was 60%. The “Herbicidal action against ABUTH” value ([15]; dosage 320 g/ha) was 80%, the “Herbicidal action against ALOMY” value ([16]; dosage 80 g/ha) was 80% and the “Herbicidal action against ALOMY” value ([16]; dosage 320 g/ha) was 100%. For the same compound, the “Herbicidal action against AMARE” value [17] was 100%, the “Herbicidal action against ECHCG” value ([18]; dosage 80 g/ha) was 20% and the “Herbicidal action against ECHCG” value ([18]; dosage 320 g/ha) was 100%. The “Herbicidal action against HORMU” value ([19]; dosage 80 g/ha) was 40%, the “Herbicidal action against HORMU” value ([19]; dosage 320 g/ha) was 100% and the “Herbicidal action against LOLRI” value ([20]; dosage 80 g/ha) was 100%. The “Herbicidal action against LOLRI” value ([20]; dosage 320 g/ha) was 100%, the “Herbicidal action against MATIN” value [21] was 90% and the “Herbicidal action against PHBPU” value ([22]; dosage 80 g/ha) was 60%. For the same compound, the “Herbicidal action against PHBPU” value ([22]; dosage 320 g/ha) was 100%, the “Herbicidal action against POLCO” value ([23]; dosage 80 g/ha) was 80% and the “Herbicidal action against POLCO” value ([23]; dosage 320 g/ha) was 80%. The “Herbicidal action against SETVI” value ([24]; dosage 80 g/ha) was 100%, the “Herbicidal action against SETVI” value ([24]; dosage 320 g/ha) was 100% and the “Herbicidal action against STEME” value [25] was 100%. The “Herbicidal action against VERPE” value [26] was 90% and the “Herbicidal action against VIOTR” value [27] was 90%.
